Consider nine compounds from patent publication US20140296064A1, “PESTICIDAL METHODS USING SUBSTITUTED 3-PYRIDYL THIAZOLE COMPOUNDS AND DERIVATIVES FOR COMBATING ANIMAL PESTS I” (BASF SE, priority 2011, published 2014).

Type in all cases: in vivo
Test [1] has as its system Cowpea Aphid (Aphis craccivora). The test is described as follows: Cowpea aphid potted plant spray test. The following applies: potted cowpea plants sprayed, population reduction assessed after 24, 72 and 120 hours, read-out: mortality in comparison with untreated controls. The protocol: B.4 Cowpea Aphid (Aphis craccivora)
The active compound was dissolved at the desired concentration in a mixture of 1:1 (vol:vol) distilled water: acetone. The test solution was prepared at the day of use.
Potted cowpea plants colonized with approximately 100-150 aphids of various stages were sprayed after the pest population had been recorded. Population reduction was assessed after 24, 72, and 120 hours.

In test [2] the test system is Green Peach Aphid (Myzus persicae). The test is described as follows: Green peach aphid artificial diet test (systemic). To be noted: 72 h, in aphid diet under artificial membrane, assessed after 3 days, read-out: mortality in comparison with untreated controls. An excerpt: B.2 Green Peach Aphid (Myzus persicae)
For evaluating control of green peach aphid (Myzus persicae) through systemic means the test unit consisted of 96-well-microtiter plates containing liquid artificial diet under an artificial membrane.
The compounds were formulated using a solution containing 75% v/v water and 25% v/v DMSO. Different concentrations of formulated compounds were pipetted into the aphid diet, using a custom built pipetter, at two replications. After application, 5-8 adult aphids were placed on the artificial membrane inside the microtiter plate wells. The aphids were then allowed to suck on the treated aphid diet and were incubated at about 23±1° C. and about 50±5% relative humidity for 3 days. Aphid mortality and fecundity was then visually assessed.

Test [3] has as its system Silverleaf Whitefly (bemisia argentifolii). Description: Silverleaf whitefly cotton plant spray test. To be noted: 72 h, cotton plants sprayed, whitefly adults, assessed 3 days after treatment, read-out: mortality in comparison with untreated controls. From the text: B.5 Silverleaf Whitefly (bemisia argentifolii)
The active compounds were formulated in cyclohexanone as a 10,000 ppm solution supplied in tubes. The tubes were inserted into an automated electrostatic sprayer equipped with an atomizing nozzle and they serve as stock solutions for which lower dilutions are made in 50% acetone: 50% water (v/v). A nonionic surfactant (Kinetic®) was included in the solution at a volume of 0.01% (v/v).
Cotton plants at the cotyledon stage (one plant per pot) were sprayed by an automated electrostatic plant sprayer equipped with an atomizing spray nozzle. The plants were dried in the sprayer fume hood and then removed from the sprayer. Each pot was placed into a plastic cup and about 10 to 12 whitefly adults (approximately 3-5 days old) were introduced. The insects were collected using an aspirator and a nontoxic Tygon® tubing connected to a barrier pipette tip. The tip, containing the collected insects, were then gently inserted into the soil containing the treated plant, allowing insects to crawl out of the tip to reach the foliage for feeding. Cups were covered with a reusable screened lid. Test plants were maintained in a growth room at about 25° C. and about 20-40% relative humidity for 3 days, avoiding direct exposure to fluorescent light (24 hour photoperiod) to prevent trapping of heat inside the cup. Mortality was assessed 3 days after treatment, compared to untreated control plants.

For test [4], the system named is Vetch aphid (Megoura viciae). The test is described as follows: Vetch aphid leaf disk spray test (contact or systemic). The following applies: foliar, 120 h, sprayed broad bean leaf disks, assessed after 5 days, read-out: mortality in comparison with untreated controls. As for the experimental part:
B.1 Vetch aphid (Megoura viciae)
For evaluating control of vetch aphid (Megoura viciae) through contact or systemic means the test unit consisted of 24-well-microtiter plates containing broad bean leaf disks.
The compounds were formulated using a solution containing 75% v/v water and 25% v/v DMSO. Different concentrations of formulated compounds were sprayed onto the leaf disks at 2.5 μl, using a custom built micro atomizer, at two replications. After application, the leaf disks were air-dried and 5-8 adult aphids were placed on the leaf disks inside the microtiter plate wells. The aphids were then allowed to suck on the treated leaf disks and were incubated at about 23±1° C. and about 50±5% relative humidity for 5 days. Aphid mortality and fecundity were then visually assessed.

Test [5] concerns Cotton aphid (Aphis gossypi). Description: Cotton aphid cotyledon dip test. The following applies: 120 h, cotton cotyledons dipped, mortality counts after 5 days, read-out: mortality in comparison with untreated controls. From the text: B.3 Cotton aphid (Aphis gossypi)
The active compounds were formulated in 50:50 (vol:vol) acetone: water and 100 ppm Kinetica™ surfactant.
Cotton plants at the cotyledon stage (one plant per pot) were infested by placing a heavily infested leaf from the main colony on top of each cotyledon. The aphids were allowed to transfer to the host plant overnight, and the leaf used to transfer the aphids was removed. The cotyledons were dipped in the test solution and allowed to dry. After 5 days, mortality counts were made.

Broadly, the mortality is the percentage killed. For `CN(C)C(=O)c1sc(-c2cccnc2)nc1C(F)(F)F` [C.1, 2-Pyridin-3-yl-4-trifluoromethyl-thiazole-5-carboxylic acid dimethylamide], the mortality at 500 ppm in test [1], in test [2] and in test [3] was at least 75% each time.
In the case of `CSCCNC(=O)c1sc(-c2cccnc2)nc1C(F)(F)F` [C.2, 2-Pyridin-3-yl-4-trifluoromethyl-thiazole-5-carboxylic acid (2-methylsulfanyl-ethyl)amide], the mortality at 500 ppm in test [1] and in test [2] was at least 75% throughout. The mortality at 800 ppm in test [4] was at least 75%.
For the compound `CCN(CCSC)C(=O)c1sc(-c2cccnc2)nc1C(F)(F)F` [C.3, 2-Pyridin-3-yl-4-trifluoromethyl-thiazole-5-carboxylic acid ethyl-(2-methylsulfanyl-ethyl)-amide], the mortality at 500 ppm in test [5] and in test [1] was at least 75% throughout.
Regarding `CCN(CC[S+](C)[O-])C(=O)c1sc(-c2cccnc2)nc1C(F)(F)F` (centres unmarked) [C.4, 2-Pyridin-3-yl-4-trifluoromethyl-thiazole-5-carboxylic acid ethyl-(2-methanesulfinyl-ethyl)-amide], the mortality at 500 ppm in test [1] and in test [3] was at least 75% in each case.
In the case of `CCN(CCS(C)(=O)=O)C(=O)c1sc(-c2cccnc2)nc1C(F)(F)F` [C.5, 2-Pyridin-3-yl-4-trifluoromethyl-thiazole-5-carboxylic acid ethyl-(2-methanesulfonyl-ethyl)-amide], in test [1], the mortality at 500 ppm is at least 75%.
As to `O=C(NC1CSC1)c1sc(-c2cccnc2)nc1C(F)(F)F` [C.6, 2-Pyridin-3-yl-4-trifluoromethyl-thiazole-5-carboxylic acid thietan-3-ylamide], in test [4], the mortality at 800 ppm was at least 75%.
Consider `CCN(C(=O)c1sc(-c2cccnc2)nc1C(F)(F)F)C1CSC1` [C.7, 2-Pyridin-3-yl-4-trifluoromethyl-thiazole-5-carboxylic acid ethyl-thietan-3-yl-amide], for which the mortality at 500 ppm in test [1] and in test [3] was at least 75% each time.
Take `CCN(C(=O)c1sc(-c2cccnc2)nc1C(F)(F)F)C1C[S+]([O-])C1` (centres unmarked) [C.8, 2-Pyridin-3-yl-4-trifluoromethyl-thiazole-5-carboxylic acid ethyl-(1-oxo-1lambda*4*-thietan-3-yl)-amide]: the mortality at 500 ppm in test [3] is at least 75%.
In the case of `CN(C)C(=O)c1sc(-c2cccnc2)nc1Cl` [C.11, 4-Chloro-N, N-dimethyl-2-(3-pyridyl)thiazole-5-carboxamide], the mortality at 500 ppm in test [5], in test [1], in test [2] and in test [3] was at least 75% each time. Besides, the mortality at 800 ppm in test [4] is at least 75%.
